In US11001564B2, “Substituted chromane-8-carboxamide compounds and analogues thereof, and methods using same” (priority 2016, dated 2021):
Structures can show the parent of a compound that is named as a salt. Where two headings read alike, the source gives them in different places.

Test system: HBV rcDNA in HepDE19 cells
Assay: HepDE19 assay with bDNA quantitation of HBV rcDNA
Assay type: cell-based, hepatitis B virus (HBV)
Conditions: Hepatitis B virus, HepDE19, 168 h
Method in brief: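 HepG2-derived HepDE19 cells, switched to Tet-free medium, were exposed 7 days at 37 °C to compound (8-point ½-log series from 25 μM, 0.5% DMSO). HBV rcDNA measured by bDNA assay with HBV-specific probes; EC50/EC90 by 4-parameter fit. CC50 from CellTiter-Glo ATP on replicate plates after 4 days.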

[1] = HepDE19 cells, 7 day incubation, rcDNA by Quantigene 2.0 bDNA assay, read-out: DE-19 bDNA EC50
[2] = read-out: DE-19 bDNA EC50, HepDE19 cells, 7 day incubation, rcDNA by Quantigene 2.0 bDNA assay

Cc1cc(NC(=O)c2ccc(F)c3c2OCC[C@@H]3NC(=O)OCCN2CCCC2=O)ccc1F [Compound 143, 2-(2-Oxopyrrolidin-1-yl)ethyl (S)-(5-fluoro-8-((4-fluoro-3-methylphenyl)carbamoyl)chroman-4-yl)carbamate]
EC50 [1]: 1200 nM

CC(=O)NCCOC(=O)N[C@H]1CCOc2c(C(=O)Nc3ccc(F)c(C)c3)ccc(F)c21 [Compound 146, 2-Acetamidoethyl (S)-(5-fluoro-8-((4-fluoro-3-methylphenyl)carbamoyl)chroman-4-yl)carbamate]
EC50 [1]: 610 nM

Cc1cc(NC(=O)c2ccc(F)c3c2OCC[C@@H]3NC(=O)OC[C@@H]2CC(=O)N2)ccc1F [Compound 147, ((S)-4-Oxoazetidin-2-yl)methyl ((S)-5-fluoro-8-((4-fluoro-3-methylphenyl)carbamoyl)chroman-4-yl)carbamate]
EC50 [1]: 840 nM

COC(=O)N[C@H]1CCOc2c(C(=O)Nc3ccc(F)c(F)c3)cc(N)cc21 [Compound 148, Methyl (S)-(6-amino-8-((3,4-difluorophenyl)carbamoyl)chroman-4-yl)carbamate]
EC50 [1]: 6400 nM

CNC(=O)N[C@H]1CCOc2c(C(=O)Nc3ccc(F)c(F)c3)cc(N)cc21 [Compound 149, (S)-6-Amino-N-(3,4-difluorophenyl)-4-(3-methylureido)chromane-8-carboxamide]
EC50 [1]: 20000 nM

Cc1cc(NC(=O)c2ccc(F)c3c2OCC[C@@H]3NC(=O)NCc2ccccn2)ccc1F [Compound 150, (S)-5-Fluoro-N-(4-fluoro-3-methylphenyl)-4-(3-(pyridin-2-ylmethyl)ureido)chromane-8-carboxamide]
EC50 [2]: 1200 nM

Cc1cc(NC(=O)c2ccc(F)c3c2OCC[C@@H]3NC(=O)CCc2ccccn2)ccc1F [Compound 151, (S)-5-Fluoro-N-(4-fluoro-3-methylphenyl)-4-(3-(pyridin-2-yl)propanamido)chromane-8-carboxamide]
EC50 [1]: 560 nM

Cc1cc(NC(=O)c2ccc(F)c3c2OCC[C@@H]3NC(=O)NCCC(=O)O)ccc1F [Compound 152, (S)-3-(3-(5-Fluoro-8-((4-fluoro-3-methylphenyl)carbamoyl)chroman-4-yl)ureido)propanoic acid]
EC50 [1]: 15000 nM

O=C(N[C@H]1CCOc2c(C(=O)Nc3ccc(F)c(Cl)c3)ccc(F)c21)OCCc1ccccn1 [Compound 153, 2-(Pyridin-2-yl)ethyl (S)-(8-((3-chloro-4-fluorophenyl)carbamoyl)-5-fluorochroman-4-yl)carbamate]
EC50 [1]: 530 nM

O=C1C[C@@H](COC(=O)N[C@H]2CCOc3c(C(=O)Nc4ccc(F)c(Cl)c4)ccc(F)c32)N1 [Compound 154, ((S)-4-Oxoazetidin-2-yl)methyl ((S)-8-((3-chloro-4-fluorophenyl)carbamoyl)-5-fluorochroman-4-yl)carbamate]
EC50 [1]: 1100 nM

O=C1CC[C@H](COC(=O)N[C@H]2CCOc3c(C(=O)Nc4ccc(F)c(Cl)c4)ccc(F)c32)N1 [Compound 155, ((R)-5-Oxopyrrolidin-2-yl)methyl ((S)-8-((3-chloro-4-fluorophenyl)carbamoyl)-5-fluorochroman-4-yl)carbamate]
EC50 [1]: 1200 nM

O=C1CC[C@@H](COC(=O)N[C@H]2CCOc3c(C(=O)Nc4ccc(F)c(Cl)c4)ccc(F)c32)N1 [Compound 156, ((S)-5-Oxopyrrolidin-2-yl)methyl ((S)-8-((3-chloro-4-fluorophenyl)carbamoyl)-5-fluorochroman-4-yl)carbamate]
EC50 [1]: 740 nM

Nc1cc(C(=O)Nc2ccc(F)c(F)c2)c2c(c1)[C@@H](NC(=O)OCc1ccccn1)CCO2 [Compound 157, Pyridin-2-ylmethyl (S)-(6-amino-8-((3,4-difluorophenyl)carbamoyl)chroman-4-yl)carbamate]
EC50 [1]: 11000 nM

CC(C)(C)OC(=O)N[C@H]1CCOc2c(C(=O)Nc3ccc(F)c(Cl)c3)ccc(F)c21 [Compound 158, tert-Butyl (S)-(8-((3-chloro-4-fluorophenyl)carbamoyl)-5-fluorochroman-4-yl)carbamate]
EC50 [1]: 5800 nM

O=C(N[C@H]1CCOc2c(C(=O)Nc3ccc(F)c(Cl)c3)ccc(F)c21)OCCN1CCCC1=O [Compound 159, 2-(2-Oxopyrrolidin-1-yl)ethyl (S)-(5-fluoro-8-((3-chloro-4-fluorophenyl)carbamoyl)chroman-4-yl)carbamate]
EC50 [1]: 410 nM

O=C(N[C@H]1CCOc2c(C(=O)Nc3ccc(F)c(Cl)c3)ccc(F)c21)OCC(=O)N1CCCC1 [Compound 160, 2-Oxo-2-(pyrrolidin-1-yl)ethyl (S)-(8-((3-chloro-4-fluorophenyl)carbamoyl)-5-fluorochroman-4-yl)carbamate]
EC50 [1]: 420 nM

CC(=O)N1CC(COC(=O)N[C@H]2CCOc3c(C(=O)Nc4ccc(F)c(C)c4)ccc(F)c32)C1 [Compound 161, (1-Acetylazetidin-3-yl)methyl (S)-(5-fluoro-8-((4-fluoro-3-methylphenyl)carbamoyl)chroman-4-yl)carbamate]
EC50 [1]: 850 nM

CS(=O)(=O)N1CCC(COC(=O)N[C@H]2CCOc3c(C(=O)Nc4ccc(F)c(Cl)c4)ccc(F)c32)CC1 [Compound 162, (1-(Methylsulfonyl)piperidin-4-yl)methyl (S)-(8-((3-chloro-4-fluorophenyl)carbamoyl)-5-fluorochroman-4-yl)carbamate]
EC50 [2]: 6100 nM

CN(C)S(=O)(=O)N1CCC(COC(=O)N[C@H]2CCOc3c(C(=O)Nc4ccc(F)c(Cl)c4)ccc(F)c32)CC1 [Compound 163, (1-(N,N-dimethylsulfamoyl)piperidin-4-yl)methyl (S)-(8-((3-chloro-4-fluorophenyl)carbamoyl)-5-fluorochroman-4-yl)carbamate]
EC50 [2]: 1000 nM

O=C(N[C@H]1CCOc2c(C(=O)Nc3ccc(F)c(Cl)c3)ccc(F)c21)OCC1CCN(C(=O)CO)CC1 [Compound 164, (1-(2-Hydroxyacetyl)piperidin-4-yl)methyl (S)-(8-((3-chloro-4-fluorophenyl)carbamoyl)-5-fluorochroman-4-yl)carbamate]
EC50 [2]: 680 nM

CNC(=O)N1CCC(COC(=O)N[C@H]2CCOc3c(C(=O)Nc4ccc(F)c(Cl)c4)ccc(F)c32)CC1 [Compound 165, (1-(Methylcarbamoyl)piperidin-4-yl)methyl (S)-(8-((3-chloro-4-fluorophenyl)carbamoyl)-5-fluorochroman-4-yl)carbamate]
EC50 [2]: 350 nM

Cc1cc(NC(=O)c2ccc(F)c3c2OCC[C@@H]3NC(=O)OC[C@@H]2CCC(=O)N2C)ccc1F [Compound 166, ((S)-1-Methyl-5-oxopyrrolidin-2-yl)methyl ((S)-5-fluoro-8-((4-fluoro-3-methylphenyl)carbamoyl)chroman-4-yl)carbamate]
EC50 [1]: 1300 nM

Cc1cc(NC(=O)c2ccc(F)c3c2OCC[C@@H]3NC(=O)OCc2cccc(N3CCOCC3)n2)ccc1F [Compound 167, (6-Morpholinopyridin-2-yl)methyl (S)-(5-fluoro-8-((4-fluoro-3-methylphenyl)carbamoyl)chroman-4-yl)carbamate]
EC50 [1]: 1800 nM

Cc1cc(NC(=O)c2ccc(F)c3c2OCC[C@@H]3NC(=O)OC[C@H]2CCC(=O)N2C)ccc1F [Compound 168, ((R)-1-Methyl-5-oxopyrrolidin-2-yl)methyl ((S)-5-fluoro-8-((4-fluoro-3-methylphenyl)carbamoyl)chroman-4-yl)carbamate]
EC50 [1]: 1600 nM

O=C(N[C@H]1CCSc2c(C(=O)Nc3ccc(F)c(F)c3)ccc(F)c21)OCc1ccccn1 [Compound 169, Pyridin-2-ylmethyl (S)-(8-((3,4-difluorophenyl)carbamoyl)-5-fluorothiochroman-4-yl)carbamate hydrochloride]
EC50 [2]: 5300 nM
